Key:
Assay type in all cases: cell-based
[1] = target: T1, human SGLT2 (Homo sapiens, UniProt P31639); assay: Inhibition test for sodium-dependent sugar uptake in CHO-K1 cells stably expressing human SGLT2, Method B; conditions: uptake 37° C., 60 minutes, read-out: IC50 for hSGLT2 Method B
T1 construct: expressed in transfected cells; host or cells: CHO-K1
T1 sequence (P31639 1-672): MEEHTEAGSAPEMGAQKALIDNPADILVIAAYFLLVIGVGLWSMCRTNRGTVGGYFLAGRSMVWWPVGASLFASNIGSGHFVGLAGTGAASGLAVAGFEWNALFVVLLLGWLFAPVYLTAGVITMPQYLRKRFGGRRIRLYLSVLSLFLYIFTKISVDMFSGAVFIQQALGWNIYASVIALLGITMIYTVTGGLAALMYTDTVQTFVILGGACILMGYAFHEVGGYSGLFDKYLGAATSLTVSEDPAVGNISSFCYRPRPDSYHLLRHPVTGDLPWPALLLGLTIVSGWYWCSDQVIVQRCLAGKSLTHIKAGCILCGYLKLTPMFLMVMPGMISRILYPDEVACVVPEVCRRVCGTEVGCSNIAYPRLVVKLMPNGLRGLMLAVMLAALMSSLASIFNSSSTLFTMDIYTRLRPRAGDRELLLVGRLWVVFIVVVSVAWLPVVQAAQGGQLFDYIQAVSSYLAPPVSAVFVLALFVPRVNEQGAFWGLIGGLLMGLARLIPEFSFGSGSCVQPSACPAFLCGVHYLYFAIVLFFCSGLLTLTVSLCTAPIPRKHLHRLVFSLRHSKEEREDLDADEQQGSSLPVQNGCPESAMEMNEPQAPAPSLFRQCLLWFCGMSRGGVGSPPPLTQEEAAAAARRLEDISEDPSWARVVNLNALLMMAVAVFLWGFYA
Protocol: (§1) (2) Creation of CHO-K1 Cells Stably Expressing Human SGLT2
(§2) Method B: A plasmid vector expressing human SGLT2 protein was transfected into CHO-K1 cells using lipofectamine LTX (Invitrogen). The cells were cultured in the presence of 1000 μg/mL geneticin to select resistant strains, followed by screening in the system shown below using sugar uptake capacity as an indicator to obtain SGLT2-expressing cells.
(§3) (3) Inhibition Test for Sodium-Dependent Sugar Uptake in Stably Expressing Cells
(§4) The stably expressing cells prepared above were used in the following test.
(§5) Pretreatment buffer (140 mM choline chloride, 2 mM KCl, 1 mM CaCl2, 1 mM MgCl2, 10 mM HEPES/5 mM Tris, pH 7.4) was added in a volume of 200 μL to the cells stably expressing SGLT1 or 2 mL for Method A and 200 μL for Method B to the cells stably expressing SGLT2, followed by incubation for 20 minutes. The pretreatment buffer was removed and replaced by uptake buffer containing a test compound (1 mM methyl α-D-glucopyranoside (containing [^14C]methyl α-D-glucopyranoside), 140 mM NaCl, 2 mM KCl, 1 mM CaCl2, 1 mM MgCl2, 10 mM HEPES/5 mM Tris, pH 7.4) in a volume of 75 μL for SGLT1 and SGLT2 in Method B or 200 μL for SGLT2 in Method A. Uptake reaction was performed at 37° C. for 30 minutes (SGLT1) or 60 minutes (SGLT2). After the reaction, the cells were washed twice with washing buffer (10 mM methyl α-D-glucopyranoside, 140 mM choline chloride, 2 mM KCl, 1 mM CaCl2, 1 mM MgCl2, 10 mM HEPES/5 mM Tris, pH 7.4) in a volume of 200 μL for SGLT1 and SGLT2 in Method B or 2 mL for SGLT2 in Method A, and then dissolved in a 0.25 M NaOH solution (75 μL for SGLT1 and SGLT2 in Method B or 400 μL for SGLT2 in Method A). A liquid scintillator (Perkin Elmer) was added and mixed well with each sample, followed by measurement of radioactivity using a β-ray analyzer. For the control group, uptake buffer containing no test compound was prepared. Moreover, another uptake buffer containing choline chloride instead of NaCl was also prepared for basal uptake.
(§6) For determination of IC50 values, test compounds prepared at 6 appropriate concentrations were used and their concentrations required for 50% inhibition of the amount of sugar uptake (IC50 values) were calculated relative to the amount of sugar uptake in the control group (100%).

[2] = target: T2, human SGLT2 protein modified to have LeuGluSerArgGlyProVal added to the carboxy-terminal final residue (Homo sapiens, UniProt P31639); assay: Inhibition test for sodium-dependent sugar uptake in CHO-K1 cells stably expressing human SGLT2, Method A; conditions: uptake 37° C., 60 minutes, read-out: IC50 for hSGLT2 Method A
T2 construct: expressed in transfected cells; host or cells: CHO-K1
T2 sequence (P31639 with tags, fused parts or gaps): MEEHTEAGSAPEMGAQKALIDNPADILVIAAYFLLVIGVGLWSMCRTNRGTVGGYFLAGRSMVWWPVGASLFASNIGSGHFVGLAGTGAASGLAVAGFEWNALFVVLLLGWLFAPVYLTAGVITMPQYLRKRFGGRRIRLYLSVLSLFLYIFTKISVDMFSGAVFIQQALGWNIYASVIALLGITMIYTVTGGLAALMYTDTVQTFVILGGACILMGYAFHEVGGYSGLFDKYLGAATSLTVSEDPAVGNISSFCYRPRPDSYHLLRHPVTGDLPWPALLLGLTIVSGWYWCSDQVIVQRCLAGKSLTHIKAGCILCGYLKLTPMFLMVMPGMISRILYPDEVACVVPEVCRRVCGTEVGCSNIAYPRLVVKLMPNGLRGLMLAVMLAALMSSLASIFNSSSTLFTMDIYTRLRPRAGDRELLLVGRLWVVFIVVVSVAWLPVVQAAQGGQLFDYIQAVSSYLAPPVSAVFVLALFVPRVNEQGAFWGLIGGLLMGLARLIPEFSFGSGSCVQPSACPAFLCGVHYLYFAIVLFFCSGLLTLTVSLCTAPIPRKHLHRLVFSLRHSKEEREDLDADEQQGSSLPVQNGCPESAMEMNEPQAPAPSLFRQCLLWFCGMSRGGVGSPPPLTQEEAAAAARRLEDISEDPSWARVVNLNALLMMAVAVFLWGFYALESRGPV
Protocol: as §1
as §2, with “A (described in WO2007/136116):” for “B:”, “protein modified to have LeuGluSerArgGlyProVal added to the carboxy-terminal final residue” for “protein”, “2000” for “LTX”, “500” for “1000”, “hygromycin B” for “geneticin”
as §3, §4, §5, §6

[3] = target: T3, human SGLT1 (Homo sapiens, UniProt P13866); assay: Inhibition test for sodium-dependent sugar uptake in CHO-K1 cells stably expressing human SGLT1; conditions: [14C]methyl α-D-glucopyranoside uptake, 37° C., 30 minutes, read-out: IC50 for hSGLT1
T3 construct: expressed in transfected cells; host or cells: CHO-K1
T3 sequence (P13866 1-664): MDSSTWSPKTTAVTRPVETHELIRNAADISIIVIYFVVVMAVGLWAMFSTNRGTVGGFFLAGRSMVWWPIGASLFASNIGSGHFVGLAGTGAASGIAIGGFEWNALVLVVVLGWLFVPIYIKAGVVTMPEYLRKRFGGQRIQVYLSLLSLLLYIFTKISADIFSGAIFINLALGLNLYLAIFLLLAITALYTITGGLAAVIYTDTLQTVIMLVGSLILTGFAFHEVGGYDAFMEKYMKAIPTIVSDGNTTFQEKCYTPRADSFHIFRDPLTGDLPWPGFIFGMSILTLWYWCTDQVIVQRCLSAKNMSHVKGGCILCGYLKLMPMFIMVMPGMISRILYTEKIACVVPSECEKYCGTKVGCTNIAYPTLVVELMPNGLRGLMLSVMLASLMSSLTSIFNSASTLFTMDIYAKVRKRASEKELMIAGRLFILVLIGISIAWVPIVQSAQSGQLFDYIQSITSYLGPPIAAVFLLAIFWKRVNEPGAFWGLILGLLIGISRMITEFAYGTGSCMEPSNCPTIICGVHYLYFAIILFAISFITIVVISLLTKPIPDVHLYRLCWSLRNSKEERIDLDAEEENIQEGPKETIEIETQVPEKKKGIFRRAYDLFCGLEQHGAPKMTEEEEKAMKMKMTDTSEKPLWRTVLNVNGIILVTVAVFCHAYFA
Protocol: (1) Creation of CHO-K1 Cells Stably Expressing Human SGLT1
as §2, with “A” for “Method B: A”, “SGLT1” for “SGLT2”, “2000” for “LTX”, “500” for “1000”, “SGLT1-expressing” for “SGLT2-expressing”
as §3, §4, §5, §6

IC50 [1] | IC50 [2] | IC50 [3] | Compound
17 nM | 1.02 µM | 38 nM | COc1cc(C(C)C)c(Cc2ccc(/C=C/C(C)(C)C(=O)NC(C)(C)C(=O)N3CCNCC3)cc2)cc1[C@@H]1O[C@H](CO)[C@@H](O)[C@H](O)[C@H]1O [Example 16-2]
81 nM | 1.72 µM | 35 nM | Cc1cc(/C=C/C(C)(C)C(=O)NC(C)(C)C(=O)N2CCN(C)CC2)ccc1Cc1cc([C@@H]2O[C@H](CO)[C@@H](O)[C@H](O)[C@H]2O)c(O)cc1C(C)C [Example 3-2]
476 nM | 15.7 µM | 50 nM | COc1cc(C(C)C)c(Cc2ccc(/C=C/C(C)(C)C(=O)NC(C)(C)C(=O)NCCN)cc2C)cc1[C@@H]1O[C@H](CO)[C@@H](O)[C@H](O)[C@H]1O [Example 8-3]
82 nM | 2.39 µM | 72 nM | COc1cc(C(C)C)c(Cc2ccc(/C=C/C(C)(C)C(=O)NC(C)(C)C(=O)NC3CCNCC3)cc2C)cc1[C@@H]1O[C@H](CO)[C@@H](O)[C@H](O)[C@H]1O [Example 14-2]
200 nM | 7.23 µM | 34 nM | COc1cc(C(C)C)c(Cc2ccc(/C=C/C(C)(C)C(=O)NC(C)(C)C(=O)N3CCNCC3)cc2C)cc1[C@@H]1O[C@H](CO)[C@@H](O)[C@H](O)[C@H]1O [Example 9-2]
 | 11.1 µM | 46 nM | COc1cc(C(C)C)c(Cc2ccc(/C=C/C(C)(C)C(=O)NC(C)(C)C(=O)NCCN(C)C)cc2C)cc1[C@@H]1O[C@H](CO)[C@@H](O)[C@H](O)[C@H]1O [Example 7-2]
26 nM | 0.979 µM | 42 nM | COc1cc(C(C)C)c(Cc2ccc(/C=C/C(C)(C)C(=O)NC(C)(C)C(=O)N3CCN(C)CC3)cc2)cc1[C@@H]1O[C@H](CO)[C@@H](O)[C@H](O)[C@H]1O [Example 17-2]
281 nM | 14.9 µM | 55 nM | COc1cc(C(C)C)c(Cc2ccc(/C=C/C(C)(C)C(=O)NC(C)(C)C(=O)N3CCN(C)CC3)cc2C)cc1[C@@H]1O[C@H](CO)[C@@H](O)[C@H](O)[C@H]1O [Example 10-2]
76 nM | 1.64 µM | 46 nM | CCN1CCN(C(=O)C(C)(C)NC(=O)C(C)(C)/C=C/c2ccc(Cc3cc([C@@H]4O[C@H](CO)[C@@H](O)[C@H](O)[C@H]4O)c(O)cc3C(C)C)c(C)c2)CC1 [Example 4-2]
28 nM | 0.971 µM | 30 nM | Cc1cc(/C=C/C(C)(C)C(=O)NC(C)(C)C(=O)N2CCNCC2)ccc1Cc1cc([C@@H]2O[C@H](CO)[C@@H](O)[C@H](O)[C@H]2O)c(O)cc1C(C)C [Example 2-2]
113 nM | 4.95 µM | 70 nM | COc1cc(C(C)C)c(Cc2ccc(/C=C/C(C)(C)C(=O)NC(C)(C)C(=O)N3CCC(N(C)C)CC3)cc2C)cc1[C@@H]1O[C@H](CO)[C@@H](O)[C@H](O)[C@H]1O [Example 12-2]
546 nM | 9.75 µM | 59 nM | CCN1CCN(C(=O)C(C)(C)NC(=O)C(C)(C)/C=C/c2ccc(Cc3cc([C@@H]4O[C@H](CO)[C@@H](O)[C@H](O)[C@H]4O)c(OC)cc3C(C)C)c(C)c2)CC1 [Example 11-2]
